The kinase profiling compilation of Christmann-Franck et al. (2016)

Target: SRPK2 (human) (UniProt P78362)
Assay: radiometric filter-binding kinase assay, Kinase HotSpot
Settings: compound 0.5 µM; ATP 10 µM

Q: How did the residual activity turn out when `O=C1NC(=O)c2cc(Nc3ccc(F)cc3)c(Nc3ccc(F)cc3)cc21` was run?
A: 92.3%

Q: With `CCCCc1c(-c2ccc(O)cc2)[nH]c2nccnc12` as the compound, how does the residual activity read?
A: 110%

Q: Which residual activity does the source give for `N#CCCc1ccc2c(c1)-c1[nH]c3ccc([N+](=O)[O-])cc3c1CC(=O)N2` here?
A: 109%

Q: Which residual activity does the source give for `O=c1c2ccccc2[nH]c(=S)n1CCN1CCC(=C(c2ccc(F)cc2)c2ccc(F)cc2)CC1` here?
A: 94.1%

Target: PRKCE (human) (UniProt Q02156)
Assay: as above
Settings: compound 0.5 µM; ATP 10 µM

Q: Which residual activity does the source give for `O=C1NC(=O)c2cc(Nc3ccc(F)cc3)c(Nc3ccc(F)cc3)cc21` here?
A: 97.8%

Q: With `CCCCc1c(-c2ccc(O)cc2)[nH]c2nccnc12` as the compound, how does the residual activity read?
A: 107%

Q: For `N#CCCc1ccc2c(c1)-c1[nH]c3ccc([N+](=O)[O-])cc3c1CC(=O)N2`, which residual activity is on record?
A: 95.4%

Q: Which residual activity does the source give for `O=c1c2ccccc2[nH]c(=S)n1CCN1CCC(=C(c2ccc(F)cc2)c2ccc(F)cc2)CC1` here?
A: 100%

Target: MELK (human) (UniProt Q14680)
Assay: as above
Settings: compound 0.5 µM; ATP 10 µM

Chain of MELK (human) (Q14680 whole entry, looked up): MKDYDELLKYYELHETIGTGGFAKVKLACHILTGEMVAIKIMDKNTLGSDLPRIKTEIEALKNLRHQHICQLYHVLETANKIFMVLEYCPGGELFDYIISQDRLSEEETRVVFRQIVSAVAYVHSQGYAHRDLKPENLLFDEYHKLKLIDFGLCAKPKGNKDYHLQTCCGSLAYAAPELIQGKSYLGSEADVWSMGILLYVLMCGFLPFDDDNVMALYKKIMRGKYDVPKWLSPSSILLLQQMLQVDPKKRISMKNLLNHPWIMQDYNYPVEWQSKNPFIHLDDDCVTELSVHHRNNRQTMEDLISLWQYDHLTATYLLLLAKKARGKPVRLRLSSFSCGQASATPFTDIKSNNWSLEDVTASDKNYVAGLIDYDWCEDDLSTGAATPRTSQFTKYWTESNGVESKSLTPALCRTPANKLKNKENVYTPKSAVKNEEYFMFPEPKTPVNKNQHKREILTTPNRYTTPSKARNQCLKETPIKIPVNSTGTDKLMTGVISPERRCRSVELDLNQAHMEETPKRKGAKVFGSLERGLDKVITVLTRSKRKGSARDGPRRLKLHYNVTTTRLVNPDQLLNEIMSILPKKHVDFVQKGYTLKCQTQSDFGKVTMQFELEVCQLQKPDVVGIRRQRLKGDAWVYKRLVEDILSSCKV

Q: How did the residual activity turn out when `O=C1NC(=O)c2cc(Nc3ccc(F)cc3)c(Nc3ccc(F)cc3)cc21` was run?
A: 92%

Q: With `CCCCc1c(-c2ccc(O)cc2)[nH]c2nccnc12` as the compound, how does the residual activity read?
A: 82.5%

Q: How did the residual activity turn out when `N#CCCc1ccc2c(c1)-c1[nH]c3ccc([N+](=O)[O-])cc3c1CC(=O)N2` was run?
A: 88.6%

Q: For `O=c1c2ccccc2[nH]c(=S)n1CCN1CCC(=C(c2ccc(F)cc2)c2ccc(F)cc2)CC1`, which residual activity is on record?
A: 104%

Target: MAPKAPK2 (human) (UniProt P49137)
Assay: as above
Settings: compound 0.5 µM; ATP 10 µM

Chain of MAPKAPK2 (human) (P49137 whole entry, looked up): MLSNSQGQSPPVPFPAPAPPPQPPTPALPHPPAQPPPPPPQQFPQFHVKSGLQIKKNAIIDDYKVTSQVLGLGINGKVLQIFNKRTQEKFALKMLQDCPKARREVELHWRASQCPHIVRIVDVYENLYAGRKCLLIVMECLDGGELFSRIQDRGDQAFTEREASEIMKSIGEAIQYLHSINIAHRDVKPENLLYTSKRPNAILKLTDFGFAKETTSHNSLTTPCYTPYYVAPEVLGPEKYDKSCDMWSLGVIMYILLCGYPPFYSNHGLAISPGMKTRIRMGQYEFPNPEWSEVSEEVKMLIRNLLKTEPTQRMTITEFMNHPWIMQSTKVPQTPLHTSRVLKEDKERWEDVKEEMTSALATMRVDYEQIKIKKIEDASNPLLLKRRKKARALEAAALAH

Q: `O=C1NC(=O)c2cc(Nc3ccc(F)cc3)c(Nc3ccc(F)cc3)cc21` was tested. Which residual activity did it give?
A: 95.7%

Q: `CCCCc1c(-c2ccc(O)cc2)[nH]c2nccnc12` was tested. Which residual activity did it give?
A: 92.6%

Q: Which residual activity does the source give for `N#CCCc1ccc2c(c1)-c1[nH]c3ccc([N+](=O)[O-])cc3c1CC(=O)N2` here?
A: 83.4%

Q: How did the residual activity turn out when `O=c1c2ccccc2[nH]c(=S)n1CCN1CCC(=C(c2ccc(F)cc2)c2ccc(F)cc2)CC1` was run?
A: 106%

Target: FGFR3 (human) (UniProt P22607)
Assay: as above
Settings: compound 0.5 µM; ATP 10 µM

Chain of FGFR3 (human) (P22607 whole entry, looked up): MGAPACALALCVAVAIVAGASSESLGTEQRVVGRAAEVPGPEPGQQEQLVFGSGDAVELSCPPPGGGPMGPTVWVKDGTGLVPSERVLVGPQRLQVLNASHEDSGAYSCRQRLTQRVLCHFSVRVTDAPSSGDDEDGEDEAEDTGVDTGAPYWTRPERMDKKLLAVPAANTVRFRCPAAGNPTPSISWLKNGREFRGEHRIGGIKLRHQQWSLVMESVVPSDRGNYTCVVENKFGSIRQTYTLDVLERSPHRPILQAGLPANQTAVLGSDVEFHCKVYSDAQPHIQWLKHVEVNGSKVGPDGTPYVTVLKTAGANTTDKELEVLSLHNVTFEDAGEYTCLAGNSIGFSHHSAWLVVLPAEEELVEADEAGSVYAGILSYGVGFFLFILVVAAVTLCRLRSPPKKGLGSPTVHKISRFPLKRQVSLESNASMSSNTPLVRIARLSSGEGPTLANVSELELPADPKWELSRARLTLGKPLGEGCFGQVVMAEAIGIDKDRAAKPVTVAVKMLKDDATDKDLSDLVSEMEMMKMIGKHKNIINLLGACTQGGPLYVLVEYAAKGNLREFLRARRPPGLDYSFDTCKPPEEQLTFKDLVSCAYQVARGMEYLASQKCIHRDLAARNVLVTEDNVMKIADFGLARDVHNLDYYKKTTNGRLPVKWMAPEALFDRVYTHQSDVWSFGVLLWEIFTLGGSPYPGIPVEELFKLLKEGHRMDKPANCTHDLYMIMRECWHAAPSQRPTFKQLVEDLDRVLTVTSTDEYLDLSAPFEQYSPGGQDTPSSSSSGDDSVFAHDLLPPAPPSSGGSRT

Q: `O=C1NC(=O)c2cc(Nc3ccc(F)cc3)c(Nc3ccc(F)cc3)cc21` was tested. Which residual activity did it give?
A: 99.7%

Q: `CCCCc1c(-c2ccc(O)cc2)[nH]c2nccnc12` was tested. Which residual activity did it give?
A: 80%

Q: `N#CCCc1ccc2c(c1)-c1[nH]c3ccc([N+](=O)[O-])cc3c1CC(=O)N2` was tested. Which residual activity did it give?
A: 90.3%

Q: With `O=c1c2ccccc2[nH]c(=S)n1CCN1CCC(=C(c2ccc(F)cc2)c2ccc(F)cc2)CC1` as the compound, how does the residual activity read?
A: 99.3%

Target: PDGFRB (human) (UniProt P09619)
Assay: as above
Settings: compound 0.5 µM; ATP 10 µM

Q: How did the residual activity turn out when `O=C1NC(=O)c2cc(Nc3ccc(F)cc3)c(Nc3ccc(F)cc3)cc21` was run?
A: 93.9%

Q: For `CCCCc1c(-c2ccc(O)cc2)[nH]c2nccnc12`, which residual activity is on record?
A: 91.4%

Q: How did the residual activity turn out when `N#CCCc1ccc2c(c1)-c1[nH]c3ccc([N+](=O)[O-])cc3c1CC(=O)N2` was run?
A: 83.9%

Q: Which residual activity does the source give for `O=c1c2ccccc2[nH]c(=S)n1CCN1CCC(=C(c2ccc(F)cc2)c2ccc(F)cc2)CC1` here?
A: 112%

Target: NEK3 (human) (UniProt P51956)
Assay: as above
Settings: compound 0.5 µM; ATP 10 µM

Chain of NEK3 (human) (P51956 whole entry, looked up): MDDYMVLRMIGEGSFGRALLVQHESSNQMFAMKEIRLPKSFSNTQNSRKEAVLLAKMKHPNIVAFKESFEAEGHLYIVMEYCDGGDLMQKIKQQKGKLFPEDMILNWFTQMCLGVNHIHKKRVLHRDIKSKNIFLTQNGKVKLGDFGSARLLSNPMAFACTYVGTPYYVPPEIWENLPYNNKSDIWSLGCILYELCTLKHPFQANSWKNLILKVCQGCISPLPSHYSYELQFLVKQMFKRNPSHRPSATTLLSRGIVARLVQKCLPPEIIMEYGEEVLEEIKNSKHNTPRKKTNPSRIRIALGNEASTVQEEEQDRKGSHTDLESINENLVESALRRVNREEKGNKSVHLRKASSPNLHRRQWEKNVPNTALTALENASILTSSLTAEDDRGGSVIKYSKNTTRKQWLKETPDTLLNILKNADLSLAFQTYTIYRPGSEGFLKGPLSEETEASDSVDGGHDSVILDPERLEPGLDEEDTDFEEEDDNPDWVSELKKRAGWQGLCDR

Q: Which residual activity does the source give for `O=C1NC(=O)c2cc(Nc3ccc(F)cc3)c(Nc3ccc(F)cc3)cc21` here?
A: 99.1%

Q: Which residual activity does the source give for `CCCCc1c(-c2ccc(O)cc2)[nH]c2nccnc12` here?
A: 103%

Q: With `N#CCCc1ccc2c(c1)-c1[nH]c3ccc([N+](=O)[O-])cc3c1CC(=O)N2` as the compound, how does the residual activity read?
A: 104%

Q: How did the residual activity turn out when `O=c1c2ccccc2[nH]c(=S)n1CCN1CCC(=C(c2ccc(F)cc2)c2ccc(F)cc2)CC1` was run?
A: 94%

Target: CLK2 (human) (UniProt P49760)
Assay: as above
Settings: compound 0.5 µM; ATP 10 µM

Chain of CLK2 (human) (P49760 whole entry, looked up): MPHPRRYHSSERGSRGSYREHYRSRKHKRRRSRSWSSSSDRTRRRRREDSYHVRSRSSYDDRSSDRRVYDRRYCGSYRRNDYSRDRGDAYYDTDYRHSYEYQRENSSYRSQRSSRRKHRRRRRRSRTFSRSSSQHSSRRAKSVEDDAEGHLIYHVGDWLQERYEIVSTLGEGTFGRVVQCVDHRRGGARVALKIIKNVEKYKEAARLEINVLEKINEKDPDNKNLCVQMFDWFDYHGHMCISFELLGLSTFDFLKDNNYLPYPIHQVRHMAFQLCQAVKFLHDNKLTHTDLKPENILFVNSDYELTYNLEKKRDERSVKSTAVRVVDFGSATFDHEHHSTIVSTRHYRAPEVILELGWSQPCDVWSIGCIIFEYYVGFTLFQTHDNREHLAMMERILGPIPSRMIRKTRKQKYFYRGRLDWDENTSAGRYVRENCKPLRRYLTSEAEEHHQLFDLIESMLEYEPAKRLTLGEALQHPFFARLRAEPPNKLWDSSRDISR

Q: Which residual activity does the source give for `O=C1NC(=O)c2cc(Nc3ccc(F)cc3)c(Nc3ccc(F)cc3)cc21` here?
A: 88.1%

Q: Which residual activity does the source give for `CCCCc1c(-c2ccc(O)cc2)[nH]c2nccnc12` here?
A: 76.4%

Q: How did the residual activity turn out when `N#CCCc1ccc2c(c1)-c1[nH]c3ccc([N+](=O)[O-])cc3c1CC(=O)N2` was run?
A: 104%

Q: `O=c1c2ccccc2[nH]c(=S)n1CCN1CCC(=C(c2ccc(F)cc2)c2ccc(F)cc2)CC1` was tested. Which residual activity did it give?
A: 87.8%

Target: GRK5 (human) (UniProt P34947)
Assay: as above
Settings: compound 0.5 µM; ATP 10 µM

Chain of GRK5 (human) (P34947 whole entry, looked up): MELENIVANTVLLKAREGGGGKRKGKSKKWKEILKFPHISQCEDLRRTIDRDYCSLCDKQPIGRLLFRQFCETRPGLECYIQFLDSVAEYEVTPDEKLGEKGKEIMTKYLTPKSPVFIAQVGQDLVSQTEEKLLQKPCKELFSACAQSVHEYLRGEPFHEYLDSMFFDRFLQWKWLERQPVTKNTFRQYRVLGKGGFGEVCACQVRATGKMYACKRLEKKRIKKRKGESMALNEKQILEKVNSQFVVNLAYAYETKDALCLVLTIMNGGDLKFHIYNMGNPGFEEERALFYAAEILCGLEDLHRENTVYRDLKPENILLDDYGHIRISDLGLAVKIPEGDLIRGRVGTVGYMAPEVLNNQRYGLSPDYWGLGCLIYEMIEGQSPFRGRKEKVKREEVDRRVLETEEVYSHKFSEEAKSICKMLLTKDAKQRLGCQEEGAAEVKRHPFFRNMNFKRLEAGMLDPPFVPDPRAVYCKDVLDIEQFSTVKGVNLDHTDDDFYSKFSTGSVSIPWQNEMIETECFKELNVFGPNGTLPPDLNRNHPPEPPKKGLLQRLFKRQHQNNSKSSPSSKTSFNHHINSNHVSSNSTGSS

Q: With `O=C1NC(=O)c2cc(Nc3ccc(F)cc3)c(Nc3ccc(F)cc3)cc21` as the compound, how does the residual activity read?
A: 101%

Q: How did the residual activity turn out when `CCCCc1c(-c2ccc(O)cc2)[nH]c2nccnc12` was run?
A: 104%

Q: How did the residual activity turn out when `N#CCCc1ccc2c(c1)-c1[nH]c3ccc([N+](=O)[O-])cc3c1CC(=O)N2` was run?
A: 103%

Q: With `O=c1c2ccccc2[nH]c(=S)n1CCN1CCC(=C(c2ccc(F)cc2)c2ccc(F)cc2)CC1` as the compound, how does the residual activity read?
A: 103%

Target: HIPK1 (human) (UniProt Q86Z02)
Assay: as above
Settings: compound 0.5 µM; ATP 10 µM

Chain of HIPK1 (human) (Q86Z02 whole entry, looked up): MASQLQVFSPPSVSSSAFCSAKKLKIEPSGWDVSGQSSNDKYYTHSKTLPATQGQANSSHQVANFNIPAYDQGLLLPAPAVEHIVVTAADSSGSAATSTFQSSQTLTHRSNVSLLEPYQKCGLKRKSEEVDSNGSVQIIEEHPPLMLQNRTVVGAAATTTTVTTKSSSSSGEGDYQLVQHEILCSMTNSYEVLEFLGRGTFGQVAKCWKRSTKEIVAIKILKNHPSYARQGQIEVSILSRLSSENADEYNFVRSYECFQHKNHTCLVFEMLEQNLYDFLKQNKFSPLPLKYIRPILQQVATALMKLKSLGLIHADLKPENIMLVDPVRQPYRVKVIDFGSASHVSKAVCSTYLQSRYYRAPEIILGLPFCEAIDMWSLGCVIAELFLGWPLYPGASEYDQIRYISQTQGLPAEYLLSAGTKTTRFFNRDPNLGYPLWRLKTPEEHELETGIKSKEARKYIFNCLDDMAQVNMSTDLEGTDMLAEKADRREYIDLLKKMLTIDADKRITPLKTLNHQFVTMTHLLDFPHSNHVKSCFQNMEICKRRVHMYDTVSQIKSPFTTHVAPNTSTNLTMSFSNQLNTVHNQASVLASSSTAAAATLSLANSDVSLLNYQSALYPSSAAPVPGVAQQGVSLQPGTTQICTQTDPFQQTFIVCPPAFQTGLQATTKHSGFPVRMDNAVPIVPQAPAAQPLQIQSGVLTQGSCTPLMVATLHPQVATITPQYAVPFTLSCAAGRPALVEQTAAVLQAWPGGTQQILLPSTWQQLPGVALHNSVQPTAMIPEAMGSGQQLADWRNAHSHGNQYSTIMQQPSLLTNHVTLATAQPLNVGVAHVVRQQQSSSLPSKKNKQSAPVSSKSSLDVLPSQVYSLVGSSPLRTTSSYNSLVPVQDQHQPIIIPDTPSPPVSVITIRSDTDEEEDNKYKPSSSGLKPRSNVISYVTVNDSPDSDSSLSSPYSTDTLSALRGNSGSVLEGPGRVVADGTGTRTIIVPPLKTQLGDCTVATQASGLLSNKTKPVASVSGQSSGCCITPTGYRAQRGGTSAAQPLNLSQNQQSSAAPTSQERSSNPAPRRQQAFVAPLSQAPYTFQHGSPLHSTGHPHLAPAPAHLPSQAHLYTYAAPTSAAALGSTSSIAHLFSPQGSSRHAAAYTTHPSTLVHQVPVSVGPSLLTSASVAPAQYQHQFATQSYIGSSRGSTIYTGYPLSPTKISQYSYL

Q: With `O=C1NC(=O)c2cc(Nc3ccc(F)cc3)c(Nc3ccc(F)cc3)cc21` as the compound, how does the residual activity read?
A: 102%

Q: How did the residual activity turn out when `CCCCc1c(-c2ccc(O)cc2)[nH]c2nccnc12` was run?
A: 97.6%

Q: How did the residual activity turn out when `N#CCCc1ccc2c(c1)-c1[nH]c3ccc([N+](=O)[O-])cc3c1CC(=O)N2` was run?
A: 97.9%

Q: Which residual activity does the source give for `O=c1c2ccccc2[nH]c(=S)n1CCN1CCC(=C(c2ccc(F)cc2)c2ccc(F)cc2)CC1` here?
A: 107%

Target: PRKACA (human) (UniProt P17612)
Assay: as above
Settings: compound 0.5 µM; ATP 10 µM

Q: For `O=C1NC(=O)c2cc(Nc3ccc(F)cc3)c(Nc3ccc(F)cc3)cc21`, which residual activity is on record?
A: 94.5%

Q: For `CCCCc1c(-c2ccc(O)cc2)[nH]c2nccnc12`, which residual activity is on record?
A: 89.7%
